Results on six compounds are retold here after ChEMBL document CHEMBL2417430, “A synthetic approach to novel carvotacetone and antheminone analogues with anti-tumour activity” (Bioorg Med Chem Lett, 2013).

For one test, the system named is MCF-10A. Briefly: Cytotoxicity against human MCF10A cells after 4 days by MTT assay. In kind it is cell-based. The following applies: 96 h. Background: Tetrazolium assays rely on reduction of a dye to a coloured formazan, in cell work by metabolically active cells.
Usually IC50 stands for the concentration needed to halve the response being measured. The low end stands for greater potency, the high end for weaker potency. For `C/C=C/C(=O)OCC1=C[C@H](O)[C@@H](c2ccccc2)CC1=O`, the IC50 was determined as 1.8 µM.

The test system of the next test is A549. Briefly: Cytotoxicity against human A549 cells after 4 days by MTT assay. In kind it is functional, cell-based. Conditions: A549, 96 h.
On to `C/C=C/C(=O)OCC1=C[C@H](O)[C@@H](C(C)C)CC1=O`, for which the IC50 came out at 14 µM.
Compound `C/C=C/C(=O)OCC1=C[C@H](O)[C@@H](c2ccccc2)CC1=O` had an IC50 of 1.3 µM. This IC50 lies about 11-fold lower than the previous one.
Still for that read-out and setting: then `C/C=C/C(=O)OCC1=C[C@H](O)[C@H](c2ccccc2)CC1=O`, with 8 µM; and `C/C=C/C(=O)OCC1=C[C@H](O)[C@@H]2C[C@@H]2C1=O`, with 18.1 µM.
On to `C/C=C/C(=O)OCC1=C[C@@H](O)CCC1=O`, for which the IC50 came to 16.7 µM.
As to `CC(C)[C@H]1CC(=O)C(CO)=C[C@@H]1O`, half-maximal inhibition (IC50) required 159 µM.
